Test results taken from ChEMBL document CHEMBL4257501, “Discovery of novel picolinamide-based derivatives as novel VEGFR-2 kinase inhibitors: synthesis, in vitro biological evaluation and molecular docking” (Medchemcomm, 2018).

Tests used:
[1] = Selectivity ratio of IC50 for VEGF-stimulated human HepG2 cells to IC50 for VEGF-stimulated human A549 cells; type: functional
A549 = test: Antiproliferative activity against VEGF-stimulated human A549 cells after 48 hrs by CCK8 assay; type: functional, cell-based; conditions: A549, 48 h
HepG2 = test: Antiproliferative activity against VEGF-stimulated human HepG2 cells after 48 hrs by CCK8 assay; type: functional, cell-based; conditions: HepG2, 48 h
[2] = biological target: Vascular endothelial growth factor receptor 2 (Homo sapiens, UniProt P35968); test: biochemical; type: cell-based, Sf9
Chain of Vascular endothelial growth factor receptor 2 (P35968 whole entry): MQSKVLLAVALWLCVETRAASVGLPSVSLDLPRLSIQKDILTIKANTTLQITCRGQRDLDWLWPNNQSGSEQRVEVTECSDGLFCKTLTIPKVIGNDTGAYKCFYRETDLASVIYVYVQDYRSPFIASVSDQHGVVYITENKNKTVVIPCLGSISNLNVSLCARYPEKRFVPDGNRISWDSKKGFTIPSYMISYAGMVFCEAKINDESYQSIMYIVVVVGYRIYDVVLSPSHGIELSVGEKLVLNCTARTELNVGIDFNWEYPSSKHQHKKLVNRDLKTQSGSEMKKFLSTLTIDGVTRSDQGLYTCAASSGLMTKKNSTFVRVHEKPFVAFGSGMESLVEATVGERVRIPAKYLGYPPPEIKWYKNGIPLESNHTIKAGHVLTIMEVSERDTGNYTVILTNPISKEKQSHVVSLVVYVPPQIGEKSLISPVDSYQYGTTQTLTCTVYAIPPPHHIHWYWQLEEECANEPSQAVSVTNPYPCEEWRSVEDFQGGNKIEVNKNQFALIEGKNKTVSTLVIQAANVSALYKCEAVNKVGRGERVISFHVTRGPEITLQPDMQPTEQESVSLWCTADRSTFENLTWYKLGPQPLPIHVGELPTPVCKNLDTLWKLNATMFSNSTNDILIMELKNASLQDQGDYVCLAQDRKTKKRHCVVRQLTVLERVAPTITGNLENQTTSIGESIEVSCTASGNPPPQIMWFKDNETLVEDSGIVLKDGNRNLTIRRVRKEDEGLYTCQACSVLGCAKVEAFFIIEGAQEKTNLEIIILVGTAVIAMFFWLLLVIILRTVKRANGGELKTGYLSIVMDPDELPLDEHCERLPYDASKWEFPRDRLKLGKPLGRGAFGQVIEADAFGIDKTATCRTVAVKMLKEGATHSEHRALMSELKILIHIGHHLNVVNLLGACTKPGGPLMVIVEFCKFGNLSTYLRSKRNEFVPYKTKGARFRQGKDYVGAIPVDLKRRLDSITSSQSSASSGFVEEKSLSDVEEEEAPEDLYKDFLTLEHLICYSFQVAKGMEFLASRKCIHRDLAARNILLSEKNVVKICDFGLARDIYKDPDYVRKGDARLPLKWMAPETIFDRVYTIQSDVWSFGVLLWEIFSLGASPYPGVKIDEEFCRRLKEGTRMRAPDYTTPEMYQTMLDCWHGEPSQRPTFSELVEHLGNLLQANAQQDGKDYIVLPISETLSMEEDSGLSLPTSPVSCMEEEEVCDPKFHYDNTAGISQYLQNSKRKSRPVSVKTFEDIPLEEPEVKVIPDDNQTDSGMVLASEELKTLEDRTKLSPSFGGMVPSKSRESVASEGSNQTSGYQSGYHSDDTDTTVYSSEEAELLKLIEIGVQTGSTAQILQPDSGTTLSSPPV
Description: Inhibition of recombinant human N-terminal GST-tagged VEGFR2 (789 to end residues) expressed in baculovirus infected Sf9 insect cells using Poly (4:1 Glu,Tyr) as substrate measured after 1 hr by ADP-Glo kinase assay

SMILES	Ratio IC50 [1]	IC50 (A549) [µM]	IC50 (HepG2) [µM]	IC50 [2] [µM]
O=C(NCc1ccc(F)cc1)c1cc(Oc2ccc(/C=C/c3ccncc3)cc2)ccn1	2	18.2	37.2	–
O=C(NCc1ccc(F)cc1)c1cc(Oc2ccc(/C=C/c3ccccn3)cc2)ccn1	<0.5	> 100	45.1	–
O=C(NCc1ccccc1)c1cc(Oc2ccc(/C=C/c3ccccn3)cc2)ccn1	1.5	18.8	27.9	–
O=C(NC1CC1)c1cc(Oc2ccc(/C=C/c3ccccn3)cc2)ccn1	1.8	17.3	31	–
O=C(NC1CCCCC1)c1cc(Oc2ccc(/C=C/c3ccncc3)cc2)ccn1	1.3	16.8	22.4	1.22
CNC(=O)c1cc(Oc2ccc(/C=C/c3ccncc3)cc2)ccn1	1.4	13.2	18.2	0.29
O=C(NCc1ccccc1)c1cc(Oc2ccc(/C=C/c3ccncc3)cc2)ccn1	1.7	17	28.9	–
O=C(Nc1ccc(Cl)cc1)c1cc(Oc2ccc(/C=C/c3ccccn3)cc2)ccn1	1.9	16.2	31.3	–
CC(C)NC(=O)c1cc(Oc2ccc(/C=C/c3ccncc3)cc2)ccn1	1.6	20.6	33.7	–
COc1ccc(NC(=O)c2cc(Oc3ccc(/C=C/c4ccncc4)cc3)ccn2)cc1	>3.9	25.6	> 100	–
COc1ccc(CNC(=O)c2cc(Oc3ccc(/C=C/c4ccccn4)cc3)ccn2)cc1	0.4	63.6	26	–
COc1ccc(CNC(=O)c2cc(Oc3ccc(/C=C/c4ccncc4)cc3)ccn2)cc1	>5.2	19.3	> 100	–
CC(C)NC(=O)c1cc(Oc2ccc(/C=C/c3ccccn3)cc2)ccn1	>4.7	21.4	> 100	–
O=C(c1cc(Oc2ccc(/C=C/c3ccncc3)cc2)ccn1)N1CCCC1	2.2	18.6	41.6	–
O=C(c1cc(Oc2ccc(/C=C/c3ccccn3)cc2)ccn1)N1CCCC1	1.7	15.6	27	–
CNC(=O)c1cc(Oc2ccc(/C=C/c3ccccn3)cc2)ccn1	1.2	17.4	21.6	0.87
O=C(Nc1ccc(Cl)cc1)c1cc(Oc2ccc(/C=C/c3ccncc3)cc2)ccn1	0.9	62.1	56.2	–
O=C(NC1CCCCC1)c1cc(Oc2ccc(/C=C/c3ccccn3)cc2)ccn1	1.6	12.5	20.6	0.53
O=C(Nc1ccccc1)c1cc(Oc2ccc(/C=C/c3ccccn3)cc2)ccn1	1.6	19.1	30.2	–
COc1ccc(NC(=O)c2cc(Oc3ccc(/C=C/c4ccccn4)cc3)ccn2)cc1	1.5	20	30	–
O=C(NC1CC1)c1cc(Oc2ccc(/C=C/c3ccncc3)cc2)ccn1	2.2	35.5	77.5	–
O=C(Nc1ccccc1)c1cc(Oc2ccc(/C=C/c3ccncc3)cc2)ccn1	>1.2	79.7	> 100	–
CNC(=O)c1cc(Oc2ccc(NC(=O)Nc3ccc(Cl)c(C(F)(F)F)c3)cc2)ccn1 [SORAFENIB]	–	19.3	29	–
